# Results reported in US20060142348A1, “Aryl sulfonamide peri-substituted bicyclics for occlusive artery disease” (deCODE Chemistry, Inc., priority 2004, published 2006).
# Target: T1, prostanoid EP3 receptors (Homo sapiens, UniProt P43115)
# T1 sequence (P43115 1-365 isoform P43115-3): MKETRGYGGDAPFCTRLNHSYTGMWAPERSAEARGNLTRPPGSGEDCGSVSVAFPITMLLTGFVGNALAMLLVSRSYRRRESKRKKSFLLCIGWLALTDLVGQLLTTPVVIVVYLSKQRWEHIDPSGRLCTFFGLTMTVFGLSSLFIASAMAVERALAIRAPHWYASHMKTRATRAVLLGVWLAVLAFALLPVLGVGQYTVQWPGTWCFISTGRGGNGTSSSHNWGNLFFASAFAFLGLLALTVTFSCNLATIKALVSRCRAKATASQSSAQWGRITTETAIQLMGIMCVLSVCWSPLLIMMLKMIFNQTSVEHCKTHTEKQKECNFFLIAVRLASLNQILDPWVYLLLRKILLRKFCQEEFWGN
# Assay: binding on prostanoid EP3 receptors (method of Abramovitz et al.)
# Conditions: read-out: Activity (EP3 receptor binding IC50)
# Description: The compounds of the invention may be assayed for their binding on prostanoid EP3 receptors according to the method of Abramovitz et al. [Bioch. Biophys. Actas 1473, 285-293 (2000)]. All of the examples in the tables below have been synthesized, characterized and tested for EP3 receptor binding.
# The compounds of the invention were assayed for their binding on prostanoid EP3 receptors according to the method of Abramovitz et al. [Bioch. Biophys. Acta, 1473, 285-293 (2000)]. […] Compounds with IC50<1 μM are shown as +++; compounds with IC50<1-10 μM are shown as ++; and compounds with IC50>10 μM are shown as +.
row,Structure (SMILES),IC50
1,"Cc1cn(Cc2ccc(F)c(F)c2)c2c(-c3cc(NS(=O)(=O)c4cc(F)c(F)cc4F)no3)cc(F)cc12 [Compound B33, N-{5-[1-(3,4-Difluoro-benzyl)-5-fluoro-3-methyl-1H-indol-7-yl]-isoxazol-3-yl}-2,4,5-trifluoro-benzenesulfonamide]",< 1000 nM
2,"Cc1cn(Cc2ccc3ccccc3c2)c2c(-c3cc(NS(=O)(=O)c4cc(F)c(F)cc4F)no3)cc(F)cc12 [Compound B39, 2,4,5-Trifluoro-N-[5-(5-fluoro-3-methyl-1-naphthalen-2-ylmethyl-1H-indol-7-yl)-isoxazol-3-yl]-benzenesulfonamide]",< 1000 nM
3,"Cc1cn(Cc2ccc3ccccc3c2)c2c(-c3cc(NS(=O)(=O)c4ccc(Cl)c(Cl)c4)no3)cc(F)cc12 [Compound B40, 3,4-Dichloro-N-[5-(5-fluoro-3-methyl-1-naphthalen-2-ylmethyl-1H-indol-7-yl)-isoxazol-3-yl]-benzenesulfonamide]",< 1000 nM
4,Cc1cn(Cc2ccc3ccccc3c2)c2c(-c3cc(NS(=O)(=O)c4cc(Cl)c(Cl)s4)no3)cc(F)cc12 [Compound B41],< 1000 nM
5,"Cc1cn(Cc2ccc(Cl)cc2Cl)c2c(-c3nc(NS(=O)(=O)c4cc(Cl)c(Cl)s4)no3)cc(F)cc12 [Compound B42, 5-Dichloro-thiophene-2-sulfonic acid {5-[1-(2,4-dichloro-benzyl)-5-fluoro-3-methyl-1H-indol-7-yl]-[1,2,4]oxadiazol-3-yl}-amide]",< 1000 nM
6,"Cn1cc(-c2csc(NS(=O)(=O)c3cc(Cl)c(Cl)s3)n2)c2c(Oc3ccc4ccccc4c3)cccc21 [Compound B43, 4,5-Dichloro-thiophene-2-sulfonic acid {4-[1-methyl-4-(naphthalen-2-yloxy)-1H-indol-3-yl]-thiazol-2-yl}-amide]",1000 to 10000 nM
7,"Cn1cc(-c2csc(NS(=O)(=O)c3ccc(F)c(F)c3)n2)c2c(Oc3ccc4ccccc4c3)cccc21 [Compound B44, 3,4-Difluoro-N-{4-[1-methyl-4-(naphthalen-2-yloxy)-1H-indol-3-yl]-thiazol-2-yl}-benzenesulfonamide]",1000 to 10000 nM
8,"Cn1cc(-c2cc(NS(=O)(=O)c3ccc(F)c(F)c3)no2)c2c(Oc3ccc4ccccc4c3)cccc21 [Compound B45, 3,4-Difluoro-N-{5-[1-methyl-4-(naphthalen-2-yloxy)-1H-indol-3-yl]-isoxazol-3-yl}-benzenesulfonamide]",< 1000 nM
9,"Cc1cn(Cc2ccc(Cl)cc2Cl)c2c(-c3ccc(NS(=O)(=O)c4cc(Cl)c(Cl)s4)nc3)cc(F)cc12 [Compound B46, 4,5-Dichloro-thiophene-2-sulfonic acid {5-[1-(2,4-dichloro-benzyl)-5-fluoro-3-methyl-1H-indol-7-yl]-pyridin-2-yl}-amide]",< 1000 nM
10,"COc1cccc(CN2C(=O)CC3(C)CCCC(c4csc(NS(=O)(=O)c5ccc(F)c(F)c5)n4)=C23)c1 (stereo not drawn) [Compound B47, 3,4-Difluoro-N-{4-[1-(3-methoxy-benzyl)-3a-methyl-2-oxo-2,3,3a,4,5,6-hexahydro-1H-indol-7-yl]-thiazol-2-yl}-benzenesulfonamide]",< 1000 nM

# Results, then the molecule that gave them:
row,IC50,Structure (SMILES)
1,< 1000 nM,"Cc1cn(Cc2ccc(Cl)cc2Cl)c2c(-c3cc(NS(=O)(=O)c4cc(Cl)c(Cl)s4)no3)cc(F)cc12 [Compound B34, 4,5-Dichloro-thiophene-2-sulfonic acid {5-[1-(2,4-dichloro-benzyl)-5-fluoro-3-methyl-1H-indol-7-yl]-isoxazol-3-yl}-amide]"
2,< 1000 nM,"Cc1cn(Cc2ccc(Cl)cc2Cl)c2c(-c3cc(NS(=O)(=O)c4ccc(F)c(F)c4)no3)cc(F)cc12 [Compound B35, N-{5-[1-(2,4-Dichloro-benzyl)-5-fluoro-3-methyl-1H-indol-7-yl]-isoxazo 1-3-yl}-3,4-difluoro-benzenesulfonamide]"
3,< 1000 nM,"Cc1cn(Cc2ccc(Cl)cc2Cl)c2c(-c3cc(NS(=O)(=O)c4cc(F)c(F)cc4F)no3)cc(F)cc12 [Compound B36, N-{5-[1-(2,4-Dichloro-benzyl)-5-fluoro-3-methyl-1H-indol-7-yl]-isoxazol-3-yl}-2,4,5-trifluoro-benzenesulfonamide]"
4,< 1000 nM,"Cc1cn(Cc2ccc(Cl)cc2Cl)c2c(-c3cc(NS(=O)(=O)c4ccc(Cl)c(Cl)c4)no3)cc(F)cc12 [Compound B37, 3,4-Dichloro-N-{5-[1-(2,4-dichloro-benzyl)-5-fluoro-3-methyl-1H-indol-7-yl]-isoxazol-3-yl}-benzenesulfonamide]"
5,< 1000 nM,"Cc1cn(Cc2ccc3ccccc3c2)c2c(-c3cc(NS(=O)(=O)c4ccc(F)c(F)c4)no3)cc(F)cc12 [Compound B38, 3,4-Difluoro-N-[5-(5-fluoro-3-methyl-1-naphthalen-2-ylmethyl-1H-indol-7-yl)-isoxazol-3-yl]-benzenesulfonamide]"
